# Reference: BindingDB's records for doi:10.1021/jm980217s (Abbott Laboratories, 1998)
# Test: Binding affinity for endothelin B receptor by measuring its ability to displace [125I]-ET-3 from porcine cerebellar tissue
row,Compound,IC50 [µM]
1,"CCCCN(CCCC)C(=O)CN1C[C@H](c2ccc3c(c2)OCO3)[C@@H](C(=O)O)[C@@H]1C(C)(C)CCCC [(2R,3R,4S)-4-Benzo[1,3]dioxol-5-yl-1-dibutylcarbamoylmethyl-2-(1,1-dimethyl-pentyl)-pyrrolidine-3-carboxylic acid]",36
2,"CCCCN(CCCC)C(=O)CN1C[C@H](c2ccc3c(c2)OCO3)[C@@H](C(=O)O)[C@@H]1CC(C)(C)C=C(C)C [(2S,3R,4S)-4-Benzo[1,3]dioxol-5-yl-1-dibutylcarbamoylmethyl-2-(2,2,4-trimethyl-pent-3-enyl)-pyrrolidine-3-carboxylic acid]",64
3,"CCCCN(CCCC)C(=O)CN1C[C@H](c2ccc3c(c2)OCO3)[C@@H](C(=O)O)[C@@H]1CCC1OCCCO1 [(2S,3R,4S)-4-Benzo[1,3]dioxol-5-yl-1-dibutylcarbamoylmethyl-2-(2-[1,3]dioxan-2-yl-ethyl)-pyrrolidine-3-carboxylic acid]",62
4,"CCCCN(CCCC)C(=O)CN1C[C@H](c2ccc3c(c2)OCO3)[C@@H](C(=O)O)[C@@H]1CCC1OCCO1 [(2S,3R,4S)-4-Benzo[1,3]dioxol-5-yl-1-dibutylcarbamoylmethyl-2-(2-[1,3]dioxolan-2-yl-ethyl)-pyrrolidine-3-carboxylic acid]",> 100
5,"CCCCN(CCCC)C(=O)CN1C[C@H](c2ccc3c(c2)OCO3)[C@@H](C(=O)O)[C@@H]1CCC1SCCS1 [(2S,3R,4S)-4-Benzo[1,3]dioxol-5-yl-1-dibutylcarbamoylmethyl-2-(2-[1,3]dithiolan-2-yl-ethyl)-pyrrolidine-3-carboxylic acid]",29.3
6,"CCCCN(CCCC)C(=O)CN1C[C@H](c2ccc3c(c2)OCO3)[C@@H](C(=O)O)[C@@H]1CC(C)CCC (stereo partly drawn) [(2S,3R,4S)-4-Benzo[1,3]dioxol-5-yl-1-dibutylcarbamoylmethyl-2-(2-methyl-pentyl)-pyrrolidine-3-carboxylic acid]",71
7,"CCCCN(CCCC)C(=O)CN1C[C@H](c2ccc3c(c2)OCO3)[C@@H](C(=O)O)[C@@H]1CC(CCC)CCC [(2S,3R,4S)-4-Benzo[1,3]dioxol-5-yl-1-dibutylcarbamoylmethyl-2-(2-propyl-pentyl)-pyrrolidine-3-carboxylic acid]",95
8,"CCCCN(CCCC)C(=O)CN1C[C@H](c2ccc3c(c2)OCO3)[C@@H](C(=O)O)[C@@H]1CCn1cccn1 [(2S,3R,4S)-4-Benzo[1,3]dioxol-5-yl-1-dibutylcarbamoylmethyl-2-(2-pyrazol-1-yl-ethyl)-pyrrolidine-3-carboxylic acid]",28.6
9,"CCCCN(CCCC)C(=O)CN1C[C@H](c2ccc3c(c2)OCO3)[C@@H](C(=O)O)[C@@H]1CCCC1OCCO1 [(2S,3R,4S)-4-Benzo[1,3]dioxol-5-yl-1-dibutylcarbamoylmethyl-2-(3-[1,3]dioxolan-2-yl-propyl)-pyrrolidine-3-carboxylic acid]",50
10,"CCCCN(CCCC)C(=O)CN1C[C@H](c2ccc3c(c2)OCO3)[C@@H](C(=O)O)[C@@H]1CCC(CC)CC [(2S,3R,4S)-4-Benzo[1,3]dioxol-5-yl-1-dibutylcarbamoylmethyl-2-(3-ethyl-pentyl)-pyrrolidine-3-carboxylic acid]",72
11,"C=C(C)CCC[C@H]1[C@H](C(=O)O)[C@@H](c2ccc3c(c2)OCO3)CN1CC(=O)N(CCCC)CCCC [(2S,3R,4S)-4-Benzo[1,3]dioxol-5-yl-1-dibutylcarbamoylmethyl-2-(4-methyl-pent-4-enyl)-pyrrolidine-3-carboxylic acid]",36
12,"CCCCN(CCCC)C(=O)CN1C[C@H](c2ccc3c(c2)OCO3)[C@@H](C(=O)O)[C@@H]1CCCCC(F)(F)F [(2S,3R,4S)-4-Benzo[1,3]dioxol-5-yl-1-dibutylcarbamoylmethyl-2-(5,5,5-trifluoro-pentyl)-pyrrolidine-3-carboxylic acid]",34
13,"CCCCN(CCCC)C(=O)CN1C[C@H](c2ccc3c(c2)OCO3)[C@@H](C(=O)O)[C@@H]1CCc1cccn1C [(2S,3R,4S)-4-Benzo[1,3]dioxol-5-yl-1-dibutylcarbamoylmethyl-2-[2-(1-methyl-1H-pyrrol-2-yl)-ethyl]-pyrrolidine-3-carboxylic acid]",43.6
14,"CCCCN(CCCC)C(=O)CN1C[C@H](c2ccc3c(c2)OCO3)[C@@H](C(=O)O)[C@@H]1CCN1CCCC1=O [(2S,3R,4S)-4-Benzo[1,3]dioxol-5-yl-1-dibutylcarbamoylmethyl-2-[2-(2-oxo-pyrrolidin-1-yl)-ethyl]-pyrrolidine-3-carboxylic acid]",65.4
15,"CCCCN(CCCC)C(=O)CN1C[C@H](c2ccc3c(c2)OCO3)[C@@H](C(=O)O)[C@@H]1CCc1nc(C)c(C)o1 [(2S,3R,4S)-4-Benzo[1,3]dioxol-5-yl-1-dibutylcarbamoylmethyl-2-[2-(4,5-dimethyl-oxazol-2-yl)-ethyl]-pyrrolidine-3-carboxylic acid]",29.7
16,"CCCCN(CCCC)C(=O)CN1C[C@H](c2ccc3c(c2)OCO3)[C@@H](C(=O)O)[C@@H]1CCC1CCCO1 (stereo partly drawn) [(2S,3R,4S)-4-Benzo[1,3]dioxol-5-yl-1-dibutylcarbamoylmethyl-2-[2-(tetrahydro-furan-2-yl)-ethyl]-pyrrolidine-3-carboxylic acid]",> 100
17,"CCCCN(CCCC)C(=O)CN1C[C@H](c2ccc3c(c2)OCO3)[C@@H](C(=O)O)[C@@H]1CCC1CCOCC1 [(2S,3R,4S)-4-Benzo[1,3]dioxol-5-yl-1-dibutylcarbamoylmethyl-2-[2-(tetrahydro-pyran-4-yl)-ethyl]-pyrrolidine-3-carboxylic acid]",> 100

# Other lines, results leading:
row,IC50 [µM],Compound
1,62,"CCCCN(CCCC)C(=O)CN1C[C@H](c2ccc3c(c2)OCO3)[C@@H](C(=O)O)[C@@H]1CC(C)(C)CCC [(2S,3R,4S)-4-Benzo[1,3]dioxol-5-yl-1-dibutylcarbamoylmethyl-2-(2,2-dimethyl-pentyl)-pyrrolidine-3-carboxylic acid]"
2,> 100,"CCCCN(CCCC)C(=O)CN1C[C@H](c2ccc3c(c2)OCO3)[C@@H](C(=O)O)[C@@H]1CC(C)(C)C1OCCO1 [(2S,3R,4S)-4-Benzo[1,3]dioxol-5-yl-1-dibutylcarbamoylmethyl-2-(2-[1,3]dioxolan-2-yl-2-methyl-propyl)-pyrrolidine-3-carboxylic acid]"
3,47,"CCCCN(CCCC)C(=O)CN1C[C@H](c2ccc3c(c2)OCO3)[C@@H](C(=O)O)[C@@H]1CCc1ccco1 [(2S,3R,4S)-4-Benzo[1,3]dioxol-5-yl-1-dibutylcarbamoylmethyl-2-(2-furan-2-yl-ethyl)-pyrrolidine-3-carboxylic acid]"
4,26,"CCCCN(CCCC)C(=O)CN1C[C@H](c2ccc3c(c2)OCO3)[C@@H](C(=O)O)[C@@H]1CCc1ccoc1 [(2S,3R,4S)-4-Benzo[1,3]dioxol-5-yl-1-dibutylcarbamoylmethyl-2-(2-furan-3-yl-ethyl)-pyrrolidine-3-carboxylic acid]"
5,> 100,"CCCCN(CCCC)C(=O)CN1C[C@H](c2ccc3c(c2)OCO3)[C@@H](C(=O)O)[C@@H]1CCc1ncco1 [(2S,3R,4S)-4-Benzo[1,3]dioxol-5-yl-1-dibutylcarbamoylmethyl-2-(2-oxazol-2-yl-ethyl)-pyrrolidine-3-carboxylic acid]"
6,14.1,"CCCCN(CCCC)C(=O)CN1C[C@H](c2ccc3c(c2)OCO3)[C@@H](C(=O)O)[C@@H]1CCc1ccccn1 [(2S,3R,4S)-4-Benzo[1,3]dioxol-5-yl-1-dibutylcarbamoylmethyl-2-(2-pyridin-2-yl-ethyl)-pyrrolidine-3-carboxylic acid]"
7,33.2,"CCCCN(CCCC)C(=O)CN1C[C@H](c2ccc3c(c2)OCO3)[C@@H](C(=O)O)[C@@H]1CCC=C(C)C [(2S,3R,4S)-4-Benzo[1,3]dioxol-5-yl-1-dibutylcarbamoylmethyl-2-(4-methyl-pent-3-enyl)-pyrrolidine-3-carboxylic acid]"
8,35.8,"CCCCN(CCCC)C(=O)CN1C[C@H](c2ccc3c(c2)OCO3)[C@@H](C(=O)O)[C@@H]1CCCC(C)C [(2S,3R,4S)-4-Benzo[1,3]dioxol-5-yl-1-dibutylcarbamoylmethyl-2-(4-methyl-pentyl)-pyrrolidine-3-carboxylic acid]"
9,48,"C/C=C(\C)CC[C@H]1[C@H](C(=O)O)[C@@H](c2ccc3c(c2)OCO3)CN1CC(=O)N(CCCC)CCCC [(2S,3R,4S)-4-Benzo[1,3]dioxol-5-yl-1-dibutylcarbamoylmethyl-2-((E)-3-methyl-pent-3-enyl)-pyrrolidine-3-carboxylic acid]"
10,7,"CCCCN(CCCC)C(=O)CN1C[C@H](c2ccc3c(c2)OCO3)[C@@H](C(=O)O)[C@@H]1CC/C=C(/C)CC [(2S,3R,4S)-4-Benzo[1,3]dioxol-5-yl-1-dibutylcarbamoylmethyl-2-((Z)-4-methyl-hex-3-enyl)-pyrrolidine-3-carboxylic acid]"
11,> 100,"CCCCN(CCCC)C(=O)CN1C[C@H](c2ccc3c(c2)OCO3)[C@@H](C(=O)O)[C@@H]1CCN1C(=O)CCC1=O [(2S,3R,4S)-4-Benzo[1,3]dioxol-5-yl-1-dibutylcarbamoylmethyl-2-[2-(2,5-dioxo-pyrrolidin-1-yl)-ethyl]-pyrrolidine-3-carboxylic acid]"
12,41,"CCCCN(CCCC)C(=O)CN1C[C@H](c2ccc3c(c2)OCO3)[C@@H](C(=O)O)[C@@H]1CCn1ccccc1=O [(2S,3R,4S)-4-Benzo[1,3]dioxol-5-yl-1-dibutylcarbamoylmethyl-2-[2-(2-oxo-2H-pyridin-1-yl)-ethyl]-pyrrolidine-3-carboxylic acid]"
13,85,"CCCCN(CCCC)C(=O)CN1C[C@H](c2ccc3c(c2)OCO3)[C@@H](C(=O)O)[C@@H]1CCN1CCCCC1=O [(2S,3R,4S)-4-Benzo[1,3]dioxol-5-yl-1-dibutylcarbamoylmethyl-2-[2-(2-oxo-piperidin-1-yl)-ethyl]-pyrrolidine-3-carboxylic acid]"
14,48,"CCCCN(CCCC)C(=O)CN1C[C@H](c2ccc3c(c2)OCO3)[C@@H](C(=O)O)[C@@H]1CCC1OC(C)C(C)O1 (stereo partly drawn) [(2S,3R,4S)-4-Benzo[1,3]dioxol-5-yl-1-dibutylcarbamoylmethyl-2-[2-(4,5-dimethyl-[1,3]dioxolan-2-yl)-ethyl]-pyrrolidine-3-carboxylic acid]"
15,47.8,"CCCCN(CCCC)C(=O)CN1C[C@H](c2ccc3c(c2)OCO3)[C@@H](C(=O)O)[C@@H]1CCC1CCCCO1 (stereo partly drawn) [(2S,3R,4S)-4-Benzo[1,3]dioxol-5-yl-1-dibutylcarbamoylmethyl-2-[2-(tetrahydro-pyran-2-yl)-ethyl]-pyrrolidine-3-carboxylic acid]"
